The source of these data is ChEMBL document CHEMBL4000172, “Identification of a novel 5-amino-3-(5-cyclopropylisoxazol-3-yl)-1-isopropyl-1H-pyrazole-4-carboxamide as a specific RET kinase inhibitor” (Eur J Med Chem, 2017).

As usually defined, the IC50 is the concentration that gives 50% inhibition. As usually defined, the GI50 is the concentration at which growth is held to half of that of the control.

The nature of data set [1]: Stability in mouse liver microsomes assessed as compound remaining at 1 uM after 15 mins. The format is ADME, microsome. Conditions: read-out: Stability.
For data set [2], the target named is T1, Proto-oncogene tyrosine-protein kinase receptor Ret (Homo sapiens, UniProt P07949). Put plainly: Inhibition of human RET using KKKSPGEYVNIEFG as peptide substrate in presence of [gamma33P]ATP by radiometric assay.
A short description of data set [3]: Cytotoxicity against human Nthy-ori 3-1 cells assessed as reduction in cell viability by CellTiter-Glo luminescence assay. The data set is classed as cell-based.
Data set [4] in a line: Cytotoxicity against mouse BA/F3 cells assessed as reduction in cell viability by CellTiter-Glo luminescence assay. The format is cell-based, BaF3.
The nature of data set [5]: Induction of apoptosis in human Nthy-ori 3-1 cells assessed as increase in cleaved PARP level at 5 uM after 48 hrs by Western blot method. The data set is classed as cell-based. Conditions: nthy-ori 3-1, 48 h. In general terms: A western blot detects proteins with antibodies after separation by electrophoresis.
The target of data set [6] is T1, Proto-oncogene tyrosine-protein kinase receptor Ret.
Description: Inhibition of RET (unknown origin) transfected in mouse Ba/F3 cells assessed as reduction in cell viability by CellTiter-Glo luminescence assay
Data set [7] concerns Proto-oncogene tyrosine-protein kinase receptor Ret (Homo sapiens), P07949 [V804M].
Description: Inhibition of RET V804M mutant (unknown origin) transfected in mouse Ba/F3 cells assessed as reduction in cell viability by CellTiter-Glo luminescence assay
Data set [8] deals with Proto-oncogene tyrosine-protein kinase receptor Ret (Homo sapiens), P07949 [C634W].
Description: Inhibition of RET C634W mutant in human TT cells assessed as reduction in cell viability by CellTiter-Glo luminescence assay
In data set [9] the target is Proto-oncogene tyrosine-protein kinase receptor Ret (Homo sapiens, UniProt P07949, V804M). The data set can be described thus: Inhibition of human RET V804M mutant using peptide substrate KKKVSRSGLYRSPS MPENLNRPR in presence of [gamma33P]ATP by radiometric assay.
Data set [10] in a line: Stability in human liver microsomes assessed as compound remaining at 1 uM after 15 mins. The format is ADME, microsome. As to conditions: read-out: Stability. In general terms: Liver microsomes are vesicles of endoplasmic reticulum, rich in cytochrome P450 enzymes.
Data set [11] can be described thus: Stability in rat liver microsomes assessed as compound remaining at 1 uM after 15 mins. The data set is classed as ADME, microsome. Conditions: read-out: Stability.
Data set [12] in a line: Stability in rat liver microsomes assessed as compound remaining at 1 uM after 30 mins. The data set is classed as ADME, microsome. As to conditions: read-out: Stability.
The nature of data set [13]: Stability in human liver microsomes assessed as compound remaining at 1 uM after 30 mins. The format is ADME, microsome. Conditions: read-out: Stability.
Data set [14] is described as follows: Induction of apoptosis in human Nthy-ori 3-1 cells assessed as increase in cleaved PARP level at 5 to 20 uM after 48 hrs by Western blot method. The data set is classed as cell-based. Conditions: nthy-ori 3-1, 48 h.

Proto-oncogene tyrosine-protein kinase receptor Ret (Homo sapiens), P07949 [V804M], sequence (P07949 whole entry V804M): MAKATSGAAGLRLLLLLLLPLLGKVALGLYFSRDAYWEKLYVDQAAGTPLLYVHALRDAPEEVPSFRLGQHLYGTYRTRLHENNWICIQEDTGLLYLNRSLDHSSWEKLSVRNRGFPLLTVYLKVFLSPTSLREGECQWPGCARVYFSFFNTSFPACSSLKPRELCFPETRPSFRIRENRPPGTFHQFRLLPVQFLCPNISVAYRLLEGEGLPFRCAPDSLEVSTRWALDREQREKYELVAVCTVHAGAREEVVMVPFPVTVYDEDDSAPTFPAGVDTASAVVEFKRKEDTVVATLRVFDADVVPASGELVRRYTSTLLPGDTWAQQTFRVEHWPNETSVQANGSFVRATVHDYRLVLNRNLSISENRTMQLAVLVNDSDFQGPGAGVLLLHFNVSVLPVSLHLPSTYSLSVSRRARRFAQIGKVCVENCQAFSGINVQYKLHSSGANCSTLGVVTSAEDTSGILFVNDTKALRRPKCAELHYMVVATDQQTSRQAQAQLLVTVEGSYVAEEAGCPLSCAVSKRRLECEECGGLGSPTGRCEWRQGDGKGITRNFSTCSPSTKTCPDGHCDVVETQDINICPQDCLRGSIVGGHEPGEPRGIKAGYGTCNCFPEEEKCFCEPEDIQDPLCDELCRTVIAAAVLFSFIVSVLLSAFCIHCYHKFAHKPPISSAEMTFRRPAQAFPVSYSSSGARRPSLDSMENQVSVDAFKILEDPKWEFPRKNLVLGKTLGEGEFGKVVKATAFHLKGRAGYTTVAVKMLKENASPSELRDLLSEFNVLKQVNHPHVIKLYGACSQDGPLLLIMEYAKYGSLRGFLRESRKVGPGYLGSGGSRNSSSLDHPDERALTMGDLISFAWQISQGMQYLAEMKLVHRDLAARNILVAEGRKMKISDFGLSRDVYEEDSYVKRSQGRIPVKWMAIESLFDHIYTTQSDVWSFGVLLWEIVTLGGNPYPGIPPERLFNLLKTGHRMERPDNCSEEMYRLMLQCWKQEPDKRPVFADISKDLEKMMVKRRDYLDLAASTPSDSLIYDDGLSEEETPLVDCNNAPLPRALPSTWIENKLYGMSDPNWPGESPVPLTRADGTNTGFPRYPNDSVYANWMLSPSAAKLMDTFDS
T1 sequence (P07949 whole entry): as the sequence (P07949 whole entry V804M) above, with M804V counted along it
Proto-oncogene tyrosine-protein kinase receptor Ret (Homo sapiens), P07949 [C634W], sequence (P07949 whole entry C634W): as the sequence (P07949 whole entry V804M) above, with C634W, M804V counted along it
Proto-oncogene tyrosine-protein kinase receptor Ret (Homo sapiens, UniProt P07949, V804M), sequence (P07949 29-1114 V804M limits assumed): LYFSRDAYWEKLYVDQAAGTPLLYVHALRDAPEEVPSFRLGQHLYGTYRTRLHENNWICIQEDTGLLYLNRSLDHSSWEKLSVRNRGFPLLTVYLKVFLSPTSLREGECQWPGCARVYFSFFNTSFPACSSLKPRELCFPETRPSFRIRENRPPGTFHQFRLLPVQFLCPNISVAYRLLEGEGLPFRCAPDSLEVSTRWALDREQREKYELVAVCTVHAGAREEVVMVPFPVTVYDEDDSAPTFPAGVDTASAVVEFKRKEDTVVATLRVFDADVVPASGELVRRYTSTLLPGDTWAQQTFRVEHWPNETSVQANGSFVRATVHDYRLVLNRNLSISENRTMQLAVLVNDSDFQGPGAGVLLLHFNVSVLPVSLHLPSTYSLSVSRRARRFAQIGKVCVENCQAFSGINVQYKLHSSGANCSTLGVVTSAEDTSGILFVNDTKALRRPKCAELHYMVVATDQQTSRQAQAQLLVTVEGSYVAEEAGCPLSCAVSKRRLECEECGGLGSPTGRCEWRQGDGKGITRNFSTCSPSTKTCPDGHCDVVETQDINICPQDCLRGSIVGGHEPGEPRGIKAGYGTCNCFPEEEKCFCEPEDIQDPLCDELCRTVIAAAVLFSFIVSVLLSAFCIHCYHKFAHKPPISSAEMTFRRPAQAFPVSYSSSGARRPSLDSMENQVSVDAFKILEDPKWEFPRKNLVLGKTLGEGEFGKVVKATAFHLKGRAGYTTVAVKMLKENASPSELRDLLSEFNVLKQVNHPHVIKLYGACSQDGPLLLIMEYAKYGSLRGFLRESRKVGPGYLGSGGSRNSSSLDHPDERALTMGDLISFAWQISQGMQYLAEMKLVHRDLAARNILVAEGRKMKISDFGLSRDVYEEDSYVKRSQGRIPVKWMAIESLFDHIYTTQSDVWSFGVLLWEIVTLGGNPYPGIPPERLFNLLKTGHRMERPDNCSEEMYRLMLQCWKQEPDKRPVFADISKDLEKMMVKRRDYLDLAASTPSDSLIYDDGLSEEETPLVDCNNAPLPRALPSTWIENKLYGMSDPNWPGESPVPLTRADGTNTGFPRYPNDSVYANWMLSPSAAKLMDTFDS

`CC(C)n1nc(-c2cc(Cc3ccccc3)on2)c(C(N)=O)c1N`: the remaining at 0.25 h, 1 µM in data set [1] is 54.6%. Besides, in data set [2], the half-maximal inhibitory concentration (IC50) is 1640 nM.

In the case of `COc1cc2nccc(Oc3ccc(NC(=O)C4(C(=O)Nc5ccc(F)cc5)CC4)cc3)c2cc1OC` [CABOZANTINIB], the GI50 is 2920 nM in [3]; greater than 10000 nM in data set [4]; 70 nM in data set [6]; 740 nM in data set [7]; 260 nM in [8]. For the same compound, in [5], the Activity entry is listed as “Toxic”.

For the compound `CC(C)n1nc(-c2ccon2)c2c(N)ncnc21`, the remaining at 0.25 h, 1 µM in data set [1] amounted to 2.6%.

In the case of `CC(C)n1nc(-c2cc(-c3ccccn3)on2)c(C(N)=O)c1N`, in data set [1], the remaining at 0.25 h, 1 µM came to 49%. In data set [2], the IC50 worked out at 4800 nM.

`CC(C)n1nc(-c2cc(-c3ccsc3)on2)c(C(N)=O)c1N`: in [1], the remaining at 0.25 h, 1 µM worked out at 11.8%. In addition, the IC50 in [2] came to 162 nM; in [9], 2900 nM. For the same compound, the GI50 in data set [3], in data set [4], in data set [6], in data set [7] and in data set [8] was greater than 10000 nM in each case.

Regarding `CC(C)n1nc(-c2cc(-c3ccc(F)cc3)on2)c(C(N)=O)c1N`, the remaining at 0.25 h, 1 µM in data set [1] came to 85.2%. Also, the IC50 in data set [2] came to 416 nM.

Take `Nc1ncnc2[nH]nc(-c3cc(C4CC4)on3)c12`: the remaining at 0.25 h, 1 µM in data set [1] turned out to be 1.4%.

`CC(C)n1nc(-c2cc(C3CC3)on2)c(C(N)=O)c1N`: the figures for the remaining at 0.25 h, 1 µM in data set [1], in [10] and in [11] were 62.5%, 73% and 70%, respectively. For the same compound, the results for the IC50 in data set [2] and in data set [9] were 44 nM and 252 nM, respectively. Besides, the remaining at 0.5 h, 1 µM in data set [12] was 69%; in data set [13] it was 45.1%. The GI50 is greater than 10000 nM in data set [3]; greater than 10000 nM in [4]; 870 nM in data set [6]; 6980 nM in data set [7]; 1660 nM in data set [8]. In data set [14], the Activity result was “Non-Toxic”.

On to `CC(C)n1nc(-c2cc(-c3cccnc3)on2)c(C(N)=O)c1N`, for which the remaining at 0.25 h, 1 µM in data set [1] was determined as 86.7%. The IC50 in data set [2] was 3390 nM.

Take `CC(C)n1nc(-c2coc(C3CC3)n2)c2c(N)ncnc21`: the remaining at 0.25 h, 1 µM in data set [1] was 2.8%. Besides, the IC50 in data set [2] is 139 nM.

Consider `Cc1ccc(-c2cc(-c3nn(C(C)C)c(N)c3C(N)=O)no2)cc1`, for which the remaining at 0.25 h, 1 µM in data set [1] turned out to be 61.8%. Further, the IC50 in [2] worked out at 1660 nM.

For `CC(C)n1nc(-c2cc(C3CCCCC3)on2)c(C(N)=O)c1N`, the remaining at 0.25 h, 1 µM in data set [1] amounted to 40.6%. Also, the IC50 in [2] came out at 2700 nM.

As for `CC(C)c1cc(-c2nn(C(C)C)c3ncnc(N)c23)no1`, the remaining at 0.25 h, 1 µM came to 5.1% in data set [1], 29% in data set [10] and 3.8% in [11]. Moreover, the remaining at 0.5 h, 1 µM in data set [12] was 4.1%; in data set [13], 4.6%.

With `CC(C)n1nc(-c2cc(C(C)(C)C)on2)c(C(N)=O)c1N`, in data set [1], the remaining at 0.25 h, 1 µM amounted to 78%. In [2], the IC50 was determined as 2220 nM.

Take `CCc1cc(-c2nn(C(C)C)c(N)c2C(N)=O)no1`: the remaining at 0.25 h, 1 µM in [1] was 15.1%. Also, the IC50 in [2] amounted to 631 nM.

`CC(C)n1nc(-c2cc(-c3cccs3)on2)c(C(N)=O)c1N`: the remaining at 0.25 h, 1 µM in data set [1] came to 32.1%. In addition, the values for the IC50 in [2] and in data set [9] were 78 nM and 1220 nM, respectively. For the same compound, the GI50 in [3], in [4], in data set [6], in data set [7] and in data set [8] was greater than 10000 nM throughout.

For the compound `CC(C)c1cc(-c2nn(C(C)C)c(N)c2C(N)=O)no1`, the remaining at 0.25 h, 1 µM in data set [1] came out at 51.6%. The IC50 in data set [2] came to 1260 nM.

In the case of `CC(C)n1nc(-c2cc(-c3ccccc3)on2)c(C(N)=O)c1N`, the remaining at 0.25 h, 1 µM in data set [1] stood at 60.8%. In addition, the IC50 in [2] is 236 nM.
